Data: article PMC9520749, “Novel angiotensin-converting enzyme and pancreatic lipase oligopeptide inhibitors from fermented rice bran” (Frontiers in Nutrition, 2022)
Read-outs that look alike come from different tables or passages of the source. Ends that are not written are not given here. Peptide text beside a SMILES is read from it.

Tests used:
pancreatic lipase [1] = molecular target: T1, pancreatic lipase (Sus scrofa, UniProt P00591); experiment: In vitro simulated gastrointestinal digestion, then pancreatic lipase inhibition; type: biochemical; conditions: 1 mg/mL, read-out: inhibition rate against pancreatic lipase
T1 construct: purchased Sigma Co., St. Louis, Missouri, United States
T1 sequence (P00591 1-450): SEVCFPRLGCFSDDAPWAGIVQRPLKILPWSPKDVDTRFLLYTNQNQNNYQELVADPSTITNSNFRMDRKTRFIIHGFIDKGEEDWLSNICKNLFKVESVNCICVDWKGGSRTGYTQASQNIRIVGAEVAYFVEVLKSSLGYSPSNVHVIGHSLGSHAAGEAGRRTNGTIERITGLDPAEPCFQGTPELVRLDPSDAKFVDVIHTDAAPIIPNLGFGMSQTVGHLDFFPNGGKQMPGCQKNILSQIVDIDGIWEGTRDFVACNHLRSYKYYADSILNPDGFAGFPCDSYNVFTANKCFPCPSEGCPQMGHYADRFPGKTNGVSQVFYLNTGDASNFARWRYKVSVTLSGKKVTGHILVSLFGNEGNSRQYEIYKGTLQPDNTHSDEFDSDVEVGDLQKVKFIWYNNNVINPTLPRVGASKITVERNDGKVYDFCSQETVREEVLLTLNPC
Method: (§1) According to the method of Magdalena mendoza-s á nchez ([1]). In the blank group, 100 μL of 0.1 M sodium phosphate buffer (pH 7.2), 50 μL pNPB (5 mM), and 50 μL pancreatic lipase (0.2 U/mL) were added to a 96-well plate. In the blank control group, 150 μL sodium phosphate buffer and 50 μL pNPB were added to the 96-well plate. In the sample group, 50 μL sodium phosphate buffer, 50 μL pNPB, 50 μL sample (1 mg/mL), and 50 μL pancreatic lipase were added to the 96-well plate. For the sample blank group, 100 μL sodium phosphate buffer, 50 μL pNPB, and 50 μL sample were added to the 96-well plate. At 37°C, the absorbance values A, B, C, and D were measured at 405 nm after 30 min of reaction. The absorbance values were incorporated into the following formula to calculate the inhibition rate of polypeptide against pancreatic lipase activity:
(§2) Simulated GI digestion through an in vitro pepsin–pancreatin hydrolysis method was carried out ([23]). The oligopeptides GLLGY, HWP, and VYGF were re-dissolved (3% w/v in distilled water) and adjusted to pH 2.0 with 1 M HCl. Then, pepsin (4% weight as received/weight of protein in the powder) was added. The mixture was incubated at 37°C for 2 h. The pH was then adjusted to 5.3 with 0.9 M NaHCO3 solution and further to pH 7.5 with 1 M NaOH. Pancreatin was added (4% weight as received/weight of protein in the powder), and the mixture was further incubated at 37°C for 2 h. To terminate the digestion, the test tubes were kept in boiling water for 10 min. The gastric digests (GDs) and gastric-intestinal digests (GIDs) were obtained through centrifugation (8000 × g, 10 min, 4°C), and then, the supernatants were collected, lyophilized, sealed in plastic bags, and stored at 4°C until further analysis. The ACE and pancreatic lipase inhibitory activities of GDS and GID were measured at a concentration of 1 mg/mL, and the results were expressed as activity (%) relative to that without any treatment (control group, 100%). All determinations were made in triplicate.

pancreatic lipase [2] = molecular target: T1, pancreatic lipase; experiment: Inhibitory kinetic analysis of pancreatic lipase (Lineweaver-Burk); type: biochemical; conditions: sample 1 mg/mL, pNPB 1-5 mM; read-out: inhibitory binding constant (Ki), pancreatic lipase
Method: (§3) The inhibition kinetics of oligopeptides GLLGY, HWP, and VYGF on ACE and pancreatic lipase were tested to determine their efficiencies. For the ACE inhibition test, the concentration of the samples GLLGY, HWP, and VYGF was 1 mg/mL, and the concentrations of the substrate FAPGG were 0.2, 0.4, 0.6, 0.8, and 1 mM. For the pancreatic lipase inhibition test, the sample HWP concentration was 1 mg/mL and the substrate pNPB concentrations were 1, 2, 3, and 5 mM. The initial velocity data were used to construct the Lineweaver–Burke plots to determine the enzyme Km (Michaelis constant), Vmax (maximum velocity), and Ki (inhibitory binding constant) ([8], [22]).

pancreatic lipase [3] = molecular target: T1, pancreatic lipase; experiment: Pancreatic lipase inhibitory activity of peptides (pNPB substrate, absorbance 405 nm); type: biochemical
Method: (§4) The polypeptide was synthesized by Hangzhou Dangang Biotechnology Co., Ltd (Hangzhou, China). Human ACE, N-[3-(2-furanyl) acryloyl]-l-phenylalanyl glycyl glycine (FAPGG), p-nitrophenyl butyrate (pNPB), and pancreatic lipase were purchased from Sigma Co., St. Louis, Missouri, United States.
as §1
(2) Pancreaticlipaseinhibitionrate (%)=(1-C-D/A-B)×100
Where A, B, C, and D are absorbance values of the blank, blank control, sample, and sample blank groups, respectively.

ACE [4] = molecular target: T2, ACE (Homo sapiens, UniProt P12821); experiment: Inhibitory kinetic analysis of ACE (Lineweaver-Burk); type: biochemical; conditions: sample 1 mg/mL, FAPGG 0.2-1 mM; read-out: inhibitory binding constant (Ki), ACE
T2 construct: purchased Sigma Co., St. Louis, Missouri, United States
Method: as §3

ACE [5] = molecular target: T2, ACE; experiment: In vitro simulated gastrointestinal digestion, then ACE inhibition; type: biochemical; conditions: 1 mg/mL, read-out: inhibition rate against ACE
Method: (§5) According to the experimental method of Yu Fu et al. ([8]), with slight changes, 50 μL ACE (0.1 U/mL, prepared from borate buffer with pH 8.3 and 80 mM), 50 μL FAPGG (1 mM), and 100 μL borate buffer (80 mM, pH 8.3) were added to a 96-well plate. Then, 100 μL borate buffer was replaced with 1 mg/mL sample, which are three groups of parallel samples, and the initial absorbance values a1 and b1 were measured at 340 nm. Then, the plate was placed at 37°C and reacted for 30 min. The absorbance values a2 and b2 were measured at 340 nm (Multiskan GO, Thermo Scientific, Waltham, MA, USA). The absorbance value was incorporated into the following formula to calculate the inhibition rate of polypeptide against ACE activity:
as §2

ACE [6] = molecular target: T2, ACE; experiment: ACE inhibitory activity of peptides (FAPGG substrate, absorbance 340 nm); type: biochemical
Method: as §4, §5
(1) ACEinhibitionrate (%)=(A-B)/A×100
Where a1 and b1 are initial absorbance values of the blank and sample groups, respectively. a2 and b2 are absorbance values of the blank and sample groups after the reaction, respectively. A = a1–a2; B = b1–b2.

pancreatic lipase [7] = molecular target: T1, pancreatic lipase; conditions: cited from earlier work

T2 sequence (P12821 30-1306): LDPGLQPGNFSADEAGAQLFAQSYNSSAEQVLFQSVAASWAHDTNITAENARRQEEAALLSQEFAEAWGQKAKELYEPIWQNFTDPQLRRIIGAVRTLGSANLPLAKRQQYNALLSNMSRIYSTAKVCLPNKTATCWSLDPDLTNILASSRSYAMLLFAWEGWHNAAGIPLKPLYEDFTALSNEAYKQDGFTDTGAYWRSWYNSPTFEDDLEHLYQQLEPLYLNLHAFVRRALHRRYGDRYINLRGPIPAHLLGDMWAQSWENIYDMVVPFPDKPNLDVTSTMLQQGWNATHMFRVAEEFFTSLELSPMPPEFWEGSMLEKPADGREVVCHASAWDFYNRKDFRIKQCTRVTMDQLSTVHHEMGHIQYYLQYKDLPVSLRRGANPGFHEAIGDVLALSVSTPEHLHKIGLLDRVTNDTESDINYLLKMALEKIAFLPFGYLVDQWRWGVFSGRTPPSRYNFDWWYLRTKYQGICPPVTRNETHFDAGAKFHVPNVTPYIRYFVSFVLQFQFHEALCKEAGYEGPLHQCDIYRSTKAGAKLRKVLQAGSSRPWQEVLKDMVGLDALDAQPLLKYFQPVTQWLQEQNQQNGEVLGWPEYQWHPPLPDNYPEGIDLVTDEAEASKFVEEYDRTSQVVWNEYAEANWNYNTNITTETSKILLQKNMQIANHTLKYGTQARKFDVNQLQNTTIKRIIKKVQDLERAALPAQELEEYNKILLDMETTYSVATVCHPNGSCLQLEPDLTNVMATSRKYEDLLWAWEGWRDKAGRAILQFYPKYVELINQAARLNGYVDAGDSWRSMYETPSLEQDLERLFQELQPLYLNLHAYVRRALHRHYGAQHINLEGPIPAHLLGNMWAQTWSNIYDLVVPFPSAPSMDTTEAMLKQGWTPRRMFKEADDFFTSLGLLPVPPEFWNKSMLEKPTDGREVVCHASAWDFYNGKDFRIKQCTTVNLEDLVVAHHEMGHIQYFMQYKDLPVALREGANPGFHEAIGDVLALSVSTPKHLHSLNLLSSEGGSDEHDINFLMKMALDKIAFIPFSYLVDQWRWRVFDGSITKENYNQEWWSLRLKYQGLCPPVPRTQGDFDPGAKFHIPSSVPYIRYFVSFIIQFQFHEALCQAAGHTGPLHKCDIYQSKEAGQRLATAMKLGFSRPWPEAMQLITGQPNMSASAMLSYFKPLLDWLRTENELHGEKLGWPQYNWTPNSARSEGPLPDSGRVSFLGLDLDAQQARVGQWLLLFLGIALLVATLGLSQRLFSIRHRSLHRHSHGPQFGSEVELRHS

Molecule | Ki (ACE [4]) [mM] | inhibition at 1000 µg/mL (ACE [5]; after GI digestion) [%] | inhibition at 1000 µg/mL (ACE [5]; after gastric digestion) [%] | inhibition at 1000 µg/mL (ACE [5]; without GI digestion) [%] | IC50 (ACE [6]) [mM] | further results
N[C@@H](Cc1c[nH]cn1)C(=O)N[C@@H](Cc1c[nH]c2ccccc12)C(=O)N1CCC[C@H]1C(=O)O [HWP] (H-His-Trp-Pro-OH) | 1.34 | 53.6 | 54.4 | 57 | 2.28 | inhibition at 1000 µg/mL (pancreatic lipase [1]; after GI digestion): 18.4%; inhibition at 1000 µg/mL (pancreatic lipase [1]; after gastric digestion): 19.9%; inhibition at 1000 µg/mL (pancreatic lipase [1]; without GI digestion): 21.5%; Ki (pancreatic lipase [2]): 2.58 mM; inhibition at 1000 µg/mL (pancreatic lipase [3]; at 1 mg/mL, read-out: pancreatic lipase inhibition rate): 20%; IC50 (pancreatic lipase [3]; gradient test of concentration, Figure 1C): 9.01 mM
CC(C)[C@H](N)C(=O)N[C@@H](Cc1ccc(O)cc1)C(=O)NCC(=O)N[C@@H](Cc1ccccc1)C(=O)O [VYGF] (H-VYGF-OH) | 0.933 | 49.1 | 50.9 | 54.8 | 2.06 | 
O=c1cc(-c2ccc(O)cc2)oc2cc(O)cc(O)c12 [apigenin] |  |  |  |  |  | IC50 (pancreatic lipase [7]): 0.45 ± 0.03 mM; type of pancreatic lipase inhibition (pancreatic lipase [7]): competitively inhibited
GLLGY [GLLGY] | 1.57 | 51.3 | 52.6 | 55.8 | 1.92 | 
Leu-Pro |  |  |  |  |  | pancreatic lipase inhibitory activity (pancreatic lipase [7]; peptide of bovine and camel casein hydrolysates): exhibits pancreatic lipase inhibitory activity
VSTDVNIE [cocoa peptide] |  |  |  |  |  | inhibitory effect on pancreatic lipase (pancreatic lipase [7]; cocoa peptides): had inhibitory effect
